Series [1] has as its system Erisyphe graminis f. sp. tritici. The series can be described thus: In vivo test on Erisyphe graminis f. sp. tritici (powdery mildew of wheat), preventive spray. Particulars: Triticum aestivum; dose of 500 g/ha; wheat plants (Audace variety); contaminated 24 hours after treatment; grading 7 to 14 days after contamination vs control plants; read-out: good (at least 50%) or total protection. As for the experimental part: An aqueous suspension, at a concentration of 1.5%, of the active material tested is obtained by grinding it finely in a formulation of concentrated suspension type. This aqueous suspension is then diluted in water so as to obtain the desired active material concentration. Wheat plants (Audace variety) in starter cups, sown on 50/50 peat soil-pozzulana substrate and grown at 12° C., are treated at the 1-leaf stage (10 cm tall) by spraying with the aqueous suspension described above. Plants, used as controls, are treated with an aqueous solution not containing the active material. After 24 hours, the plants are contaminated by dusting them with Erisyphe graminis f. sp. tritici spores, the dusting being carried out using diseased plants.

A further series deals with Drechslera teres. Put plainly: In vivo test on Drechslera teres (barley net blotch), preventive spray. The conditions noted are these: Pyrenophora teres, 288 h; dose of 500 g/ha; barley plants (Express variety); contaminated 24 hours after treatment; grading 12 days after contamination vs control plants; read-out: good (at least 50%) protection. On the procedure:
An aqueous suspension, at a concentration of 1.5%, of the active material. tested is obtained by grinding it finely in a formulation of concentrated suspension type. This aqueous suspension is then diluted in water so as to obtain the desired active material concentration. Barley plants (Express variety) in starter cups, sown on a 50/50 peat soil-pozzolana substrate and grown at 12° C., are treated at the 1-leaf stage (10 cm tall) by spraying with the aqueous suspension described above. Plants, used as controls, are treated with an aqueous solution not containing the active material.
After 24 hours, the plants are contaminated by spraying them with an aqueous suspension of Dreschslera teres spores (12,000 spores per mL). The spores are collected from a 12-day-old culture. The contaminated wheat plants are incubated for 24 hours at about 20° C. and at 100% relative humidity, and then for 12 days at 80% relative humidity.
Grading is carried out 12 days after the contamination, in comparison with the control plants. Under these conditions, good (at least 50%) protection is observed, at a dose of 500 g/ha, with the compounds described as example: 9, 13, 14, 15, 18, 20, 21, 22, 24, 26, 27, 30, 31, 32, 33, 34, 35, 36, 37, 41, 43, 45, 47, 49, 62, 69, 70, 72.

A further series has as its system Septoria tritici. The series can be described thus: In vivo test on Septoria tritici (leaf spot of wheat), preventive spray. The conditions noted are these: Zymoseptoria tritici; dose of 500 g/ha; wheat plants (Scipion variety); contaminated 24 hours after treatment; grading 15 to 20 days after contamination vs control plants; read-out: good (at least 50%) protection. As for the experimental part: An aqueous suspension, at a concentration of 1.5%, of the active material tested is obtained by grinding it finely in a formulation of concentrated suspension type. This aqueous suspension is then diluted in water so as to obtain the desired active material concentration. Wheat plants (Scipion variety) in starter cups, sown on a 50/50 peat soil-pozzolana substrate and grown at 12° C., are treated at the 1-leaf stage (10 cm tall) by spraying with the aqueous suspension described above. Plants, used as controls, are treated with an aqueous solution not containing the active material.
After 24 hours, the plants are contaminated by spraying them with an aqueous suspension of Septoria tritici spores (500,000 spores per mL). The spores are collected from a 15-day-old culture and are suspended in a nutrient solution composed of: • 1.5 g/L of gelatine • 0.5 g/L of sodium oleate • 24 g/L of PDB
The contaminated wheat plants are incubated for 72 hours at about 20° C. and at 100% relative humidity, and then for 15 days at 80% relative humidity.

A further series relates to Puccinia recondita. The series can be described thus: In vivo test on Puccinia recondita (wheat brown rust), preventive spray. The conditions noted are these: 240 h, dose of 500 g/ha, wheat plants (Scipion variety), contaminated 24 hours after treatment, grading 10 days after contamination vs control plants, read-out: good (at least 50%) protection. On the procedure:
An aqueous suspension, at a concentration of 1.5%, of the active material tested is obtained by grinding it finely in a formulation of concentrated suspension type, This aqueous suspension is then diluted in water so as to obtain the desired active material concentration. Wheat plants (Scipion variety) in starter cups, sown on a 50/50 peat soil-pozzolana substrate and grown at 12° C., are treated at the 1-leaf stage (10 cm tall) by spraying with the aqueous suspension described above. Plants, used as controls, are treated with an aqueous solution not containing the active material.
After 24 hours, the plants are contaminated by spraying them with an aqueous suspension of Puccinia recondita spores (150,000 spores per mL). The contaminated wheat plants are incubated for 24 hours at about 20° C. and at 100% relative humidity, and then for 10 days at 70% relative humidity.
Grading is carried out 10 days after the contamination, in comparison with the control plants. Under these conditions, good (at least 50%) protection is observed, at a dose of 500 g/ha, with the following compounds described as example: 6, 10, 11, 12, 13, 14, 15, 28, 29, 30, 31, 34, 37, 42, 45, 46, 50, 51, 52, 62, 72.

SMILES strings stand for the structures.

For orientation: melting point means the temperature, or range, at which the solid turns liquid.

As for `C=CCOC(=O)Nc1cn(C)c(C(=O)Nc2ccc(Oc3ccc(C(F)(F)F)cc3)cc2)c1OC` [compound 5, 1-Methyl-4-[(allyloxycarbonyl)amino]-3-methoxy-1H—N-para-[4-(trifluoromethyl)phenoxy]phenyl-pyrrole-2-carboxamide], the pest or weed control at 500 g/ha in series [1] is not below 50%.
As for `CCCCOc1ccc(NC(=O)c2c(O)c(N)cn2C)cc1` [compound 9, 1-Methyl-4-amino-3-hydroxy-1H-N-(4-butoxy-phenyl)pyrrole-2-carboxamide], the pest or weed control at 500 g/ha in the series with Drechslera teres and with Septoria tritici was not below 50% in each case.
For `CCOC(=O)c1c(OC)c(C(=O)Nc2ccc(Oc3ccc(C(F)(F)F)cc3)cc2)cn1C` [compound 12, 1-methyl-2-ethoxycarbonyl-3-methoxy-1H-N-para-[4-(trifluoromethyl)phenoxy]phenyl-pyrrole-4-carboxamide], the pest or weed control at 500 g/ha (in the series on Puccinia recondita; in series [1]) was not below 50% each time.
For the compound `COc1c(C(=O)Nc2ccc(Oc3ccc(C(F)(F)F)cc3)cc2)cn(C)c1C(=O)O` [compound 13, 1-methyl-2-hydroxycarbonyl-3-methoxy-1H-N-para-[4-(trifluoromethyl)phyenoxy]phenyl-pyrrole-4-carboxamide], the pest or weed control at 500 g/ha (with Puccinia recondita; in series [1]; in the series with Drechslera teres) was not below 50% each time.
Regarding `COc1c(C(=O)Nc2ccc(Oc3ccc(C(F)(F)F)cc3)cc2)cn(C)c1N` [compound 14, 1-methyl-2-amino-3-methoxy-1H-N-para-[4-(trifluoromethyl)phenoxy]phenyl-pyrrole-4-carboxamide], the pest or weed control at 500 g/ha (in the series with Puccinia recondita; in series [1]; in the series with Drechslera teres) was not below 50% each time.
As for `CCOC(=O)c1c(O)c(C(=O)Nc2ccc(Oc3ccc(C(F)(F)F)cc3)cc2)cn1C` [compound 15, 1-methyl-2-ethoxycarbonyl-3-hydroxy-1H-N-para-[4-(trifluoromethyl)phenoxy]phenyl-pyrrole-4-carboxamide], the pest or weed control at 500 g/ha (in the series with Puccinia recondita; in series [1]; in the series with Drechslera teres; in the series with Septoria tritici) was not below 50% each time.
Take `Nc1nccc(C(=O)Nc2ccc(Oc3ccc(C(F)(F)F)cc3)cc2)c1O` [compound 19, [4-(Trifluoromethyl)phenoxy]anilino-(2-amino-3-hydroxy)pyridyl-4-carboxamide]: the pest or weed control at 500 g/ha in series [1] was not below 50%.
For `COC(=O)Nc1noc(C(=O)Nc2ccc(Oc3ccc(C(F)(F)F)cc3)cc2)c1OC` [compound 28], the pest or weed control at 500 g/ha (in the series with Puccinia recondita; in series [1]) was not below 50% each time.
As to `COC(=O)c1onc(C(=O)Nc2ccc(Oc3ccc(C(F)(F)F)cc3)cc2)c1OC` [compound 39], in the series on Septoria tritici, the pest or weed control at 500 g/ha was not below 50%.
Turning to `Nc1cc(C(=O)Nc2ccc(Oc3ccc(C(F)(F)F)cc3)cc2)ns1` [compound 42, 5-Amino-N-para-[4-(trifluoromethyl)phenoxy]phenyl-isothiazole-3-carboxamide], the pest or weed control at 500 g/ha (in the series on Puccinia recondita; in series [1]; with Septoria tritici) was not below 50% throughout.
Consider `Cn1nc(C(=O)Nc2ccc(Oc3cccc(C(F)(F)F)c3)cc2)c(O)c1N` [compound 44, 1-Methyl-4-hydroxy-5-amino-N-para-[3-(trifluoromethyl)phenoxy]phenyl pyrazole-3-carboxamide], for which, in series [1], the pest or weed control at 500 g/ha was not below 50%.
On to `Nc1cncc(C(=O)Nc2ccc(Oc3cccc(C(F)(F)F)c3)cc2)c1O` [compound 45, 5-amino-4-hydroxy-N-para-[3-(trifluoromethyl)phenoxy]phenyl nicotinamide], for which the pest or weed control at 500 g/ha (in the series with Puccinia recondita; in series [1]; in the series with Drechslera teres; in the series on Septoria tritici) was not below 50% in each case.
For `COC(=O)c1cncc(C(=O)Nc2ccc(Oc3ccc(C(F)(F)F)c(Cl)c3)cc2)c1OC` [compound 49, 5-methoxycarbonyl-4-methoxy-N-para-[3-chloro-4-(trifluoromethyl)phenoxy]phenyl nicotinamide], the pest or weed control at 500 g/ha (in series [1]; in the series with Drechslera teres; in the series on Septoria tritici) was not below 50% each time.
For `COc1c(C(N)=O)cncc1C(=O)Nc1ccc(Oc2ccc(C(F)(F)F)c(Cl)c2)cc1` [compound 50, 5-aminocarbonyl-4-methoxy-N-para-[3-chloro-4-(trifluoromethyl)phenoxy]phenyl nicotinamide], the pest or weed control at 500 g/ha in the series with Puccinia recondita and with Septoria tritici was not below 50% in each case.
Consider `Cc1nc(C)c(-n2cccc2)c(O)c1C(=O)Nc1ccc(OC(F)(F)C(F)F)cc1` [compound 55, 2,6-dimethyl-5-pyrrol-1-yl-4-hydroxy-N-para-(1,1,2,2 tetrafluoroethoxy)phenyl nicotinamide], for which the pest or weed control at 500 g/ha in series [1] is not below 50%.
For the compound `CCCCOc1ccc(NC(=O)c2occc(=O)c2O)cc1` [compound 59, N-(4-Butyloxy-phenyl)-2-(3-hydroxy-γ-pyranone)-carboxamide], the melting point is 203 to 204 °C. The pest or weed control at 500 g/ha in series [1] was not below 50%. For the same compound, the pest or weed control at 500 g/ha in the series with Septoria tritici was not below 50%.
Consider `CC(C)N1CC(C(=O)Nc2ccc(Oc3ccccc3)cc2)=C(O)C1=O` [compound 72, N-4-(phenoxy)phenyl-(1-N-isopropyl-4-hydroxy-5-dioxo-2,5-dihydro-1H)-pyrrol-3-carboxamide], for which the pest or weed control at 500 g/ha with Puccinia recondita, in the series with Drechslera teres and in the series with Septoria tritici was not below 50% throughout.
As for `CC(C)N1CC(C(=O)Nc2ccc(Oc3ccc(C(F)(F)F)cc3)cc2)=C(O)C1=O` [compound 73, N-(4-(4-Trifluormethyl)phenoxy)phenyl-[(1-isopropyl-4-hydroxy-5-dioxo-2,5-dihydro-1H)-pyrrol]-3-carboxamide], the pest or weed control at 500 g/ha in series [1] was not below 50%.

The values above are taken from patent US7084163B2, “Heterocyclic carboxamides and their use as fungicides” (Bayer Cropscience S.A., priority 2001, dated 2006).
